One block for each compound: values may come before it.
What was measured:
D(2) dopamine receptor [1] = molecular target: T1, D(2) dopamine receptor (Rattus norvegicus, UniProt P61169); experiment: Effective concentration required for agonistic activity against rat D2 short receptor; format: functional
D(2) dopamine receptor [2] = molecular target: T1, D(2) dopamine receptor; experiment: Effective concentration required for agonistic activity against rat Dopamine receptor D2L; format: functional
D(4) dopamine receptor [3] = molecular target: T2, D(4) dopamine receptor (Homo sapiens, UniProt P21917); experiment: Binding affinity of compound measured using [3H]spiperone for the cloned human dopamine receptor D4.4 (high/low affinity is given as 50/2200)
T2 sequence (P21917 whole entry): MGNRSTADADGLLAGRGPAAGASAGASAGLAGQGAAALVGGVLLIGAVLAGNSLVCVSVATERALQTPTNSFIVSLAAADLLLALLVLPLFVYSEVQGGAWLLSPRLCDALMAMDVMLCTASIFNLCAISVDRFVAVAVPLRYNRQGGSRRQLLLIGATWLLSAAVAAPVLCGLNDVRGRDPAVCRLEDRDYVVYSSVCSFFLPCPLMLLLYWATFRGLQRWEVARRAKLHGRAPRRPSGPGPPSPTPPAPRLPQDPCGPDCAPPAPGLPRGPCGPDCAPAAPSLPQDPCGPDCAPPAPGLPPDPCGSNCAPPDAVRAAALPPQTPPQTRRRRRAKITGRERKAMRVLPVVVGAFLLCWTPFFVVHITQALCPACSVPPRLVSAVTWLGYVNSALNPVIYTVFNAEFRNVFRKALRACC

D(4) dopamine receptor [4] = molecular target: T2, D(4) dopamine receptor; experiment: Effective concentration required for agonistic activity against human D4.2 receptor; format: functional
D(2) dopamine receptor [5] = molecular target: T3, D(2) dopamine receptor (Bos taurus, UniProt P20288); experiment: Binding affinity of compound against Dopamine receptor D2 was measured using [3H]pramipexole in Bovine striatal membranes; format: cell membranes, Striatum, Membrane
T3 sequence (P20288 whole entry): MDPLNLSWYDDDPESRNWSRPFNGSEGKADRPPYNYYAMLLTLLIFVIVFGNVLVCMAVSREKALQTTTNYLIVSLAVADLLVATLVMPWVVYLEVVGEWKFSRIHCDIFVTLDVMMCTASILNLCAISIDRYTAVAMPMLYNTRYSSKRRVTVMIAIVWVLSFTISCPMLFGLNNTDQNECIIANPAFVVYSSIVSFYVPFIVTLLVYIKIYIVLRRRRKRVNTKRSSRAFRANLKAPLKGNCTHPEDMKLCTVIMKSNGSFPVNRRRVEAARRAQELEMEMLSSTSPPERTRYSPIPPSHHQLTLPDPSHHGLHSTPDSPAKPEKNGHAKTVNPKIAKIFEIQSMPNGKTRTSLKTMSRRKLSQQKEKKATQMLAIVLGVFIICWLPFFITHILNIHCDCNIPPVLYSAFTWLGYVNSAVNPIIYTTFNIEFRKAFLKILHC

D(2) dopamine receptor [6] = molecular target: T4, D(2) dopamine receptor (Homo sapiens, UniProt P14416); experiment: Binding affinity of compound measured using [3H]spiperone for the cloned human Dopamine receptor D2L (high/low affinity is given as 85/6400)
T4 sequence (P14416 whole entry): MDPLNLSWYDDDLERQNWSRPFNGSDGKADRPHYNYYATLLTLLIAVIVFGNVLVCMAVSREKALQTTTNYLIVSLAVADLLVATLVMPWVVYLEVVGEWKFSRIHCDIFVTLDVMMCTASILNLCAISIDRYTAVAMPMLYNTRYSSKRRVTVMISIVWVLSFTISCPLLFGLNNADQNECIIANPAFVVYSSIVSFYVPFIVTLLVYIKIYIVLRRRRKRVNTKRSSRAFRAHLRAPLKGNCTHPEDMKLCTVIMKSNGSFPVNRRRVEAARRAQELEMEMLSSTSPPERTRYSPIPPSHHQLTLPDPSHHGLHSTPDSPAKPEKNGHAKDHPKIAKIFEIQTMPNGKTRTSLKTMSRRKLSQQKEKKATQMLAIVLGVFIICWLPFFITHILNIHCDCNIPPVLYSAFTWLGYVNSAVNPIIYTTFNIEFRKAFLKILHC

D(2) dopamine receptor [7] = molecular target: T4, D(2) dopamine receptor; experiment: Binding affinity of compound measured using [3H]spiperone for the cloned human dopamine receptor D2 short (high/low affinity is given as 35/3700)
D(1A) dopamine receptor = D(1A) dopamine receptor (Bos taurus, UniProt Q95136); experiment: Binding affinity of compound measured against Dopamine receptor D1 from bovine striatal membranes using radioligand [3H]-SCH- 23390
D(1A) dopamine receptor, sequence (Q95136 whole entry): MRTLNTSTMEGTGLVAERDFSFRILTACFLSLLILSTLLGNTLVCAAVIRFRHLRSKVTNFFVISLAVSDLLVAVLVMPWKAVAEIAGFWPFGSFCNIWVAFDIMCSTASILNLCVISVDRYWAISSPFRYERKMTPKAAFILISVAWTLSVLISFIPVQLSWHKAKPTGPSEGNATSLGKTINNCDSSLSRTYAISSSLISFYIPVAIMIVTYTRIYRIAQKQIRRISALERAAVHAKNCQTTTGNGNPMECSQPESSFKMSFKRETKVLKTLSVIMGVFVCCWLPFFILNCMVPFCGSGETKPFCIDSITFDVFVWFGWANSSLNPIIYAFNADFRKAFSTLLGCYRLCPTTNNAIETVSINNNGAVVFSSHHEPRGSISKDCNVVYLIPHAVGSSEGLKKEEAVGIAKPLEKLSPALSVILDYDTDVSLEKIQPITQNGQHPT

D(3) dopamine receptor [8] = molecular target: T5, D(3) dopamine receptor (Homo sapiens, UniProt P35462); experiment: Effective concentration required for agonistic activity against human Dopamine receptor D3
T5 sequence (P35462 whole entry): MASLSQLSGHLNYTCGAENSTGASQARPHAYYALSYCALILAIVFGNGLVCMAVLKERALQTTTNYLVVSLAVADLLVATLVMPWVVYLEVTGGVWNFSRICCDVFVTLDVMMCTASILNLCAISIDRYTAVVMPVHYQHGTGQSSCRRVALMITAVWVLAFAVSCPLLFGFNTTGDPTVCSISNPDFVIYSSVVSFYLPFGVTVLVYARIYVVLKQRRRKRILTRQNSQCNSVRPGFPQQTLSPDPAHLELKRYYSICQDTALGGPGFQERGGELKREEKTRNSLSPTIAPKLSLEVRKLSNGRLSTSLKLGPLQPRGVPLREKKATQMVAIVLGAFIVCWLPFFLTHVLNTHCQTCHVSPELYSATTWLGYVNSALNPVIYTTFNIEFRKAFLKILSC

D(3) dopamine receptor [9] = molecular target: T5, D(3) dopamine receptor
D(2) dopamine receptor [10] = molecular target: T4, D(2) dopamine receptor; experiment: Binding affinity of compound measured using [3H]spiperone for the cloned human dopamine receptor D2 short (high/low affinity is given as 130/50000)
D(4) dopamine receptor [11] = molecular target: T2, D(4) dopamine receptor; experiment: Binding affinity of compound measured using [3H]spiperone for the cloned human dopamine receptor D4.4 (high/low affinity is given as 87/23000)
D(3) dopamine receptor [12] = molecular target: T5, D(3) dopamine receptor; experiment: Effective concentration required for agonistic activity against human D3 receptor; format: functional
D(2) dopamine receptor [13] = molecular target: T4, D(2) dopamine receptor; experiment: Binding affinity of compound measured using [3H]spiperone for the cloned human dopamine receptor D2 long (high/low affinity is given as 230/53000)
D(2) dopamine receptor [14] = molecular target: T1, D(2) dopamine receptor; experiment: Effective concentration required for agonistic activity against rat D2 long receptor; format: functional
D(3) dopamine receptor [15] = molecular target: T5, D(3) dopamine receptor; remark: listed apart in the source
Description: Binding affinity of compound measured using [3H]spiperone for the cloned human Dopamine receptor D3 (high/low affinity is given as 16/16000)

D(2) dopamine receptor [16] = molecular target: T3, D(2) dopamine receptor
D(4) dopamine receptor [17] = molecular target: T2, D(4) dopamine receptor; experiment: Binding affinity of compound measured using [3H]spiperone for the cloned human dopamine receptor D4.4 (high/low affinity is given as 16/1300)

T1 sequence (P61169 whole entry): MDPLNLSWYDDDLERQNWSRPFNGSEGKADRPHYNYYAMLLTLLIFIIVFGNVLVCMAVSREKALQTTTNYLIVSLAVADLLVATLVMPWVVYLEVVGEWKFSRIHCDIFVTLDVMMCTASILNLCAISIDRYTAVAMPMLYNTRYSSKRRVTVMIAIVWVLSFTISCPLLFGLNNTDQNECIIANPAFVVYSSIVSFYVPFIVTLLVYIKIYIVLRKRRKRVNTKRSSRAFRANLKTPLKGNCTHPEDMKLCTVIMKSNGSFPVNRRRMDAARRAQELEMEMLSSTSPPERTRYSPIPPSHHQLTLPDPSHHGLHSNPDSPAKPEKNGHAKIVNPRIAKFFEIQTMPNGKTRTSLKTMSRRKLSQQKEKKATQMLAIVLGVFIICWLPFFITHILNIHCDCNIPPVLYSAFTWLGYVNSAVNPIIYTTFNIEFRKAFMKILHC

Compound: CCCN(CCC)[C@H]1CCc2nn3ccccc3c2C1
- EC50 (D(2) dopamine receptor [1]): 47 nM
- EC50 (D(2) dopamine receptor [2]): 16 nM
- Ki (D(4) dopamine receptor [3]): 50 nM
- EC50 (D(4) dopamine receptor [4]): 430 nM
- Ki (D(2) dopamine receptor [5]): 8.6 nM
- Ki (D(2) dopamine receptor [6]): 85 nM
- Ki (D(2) dopamine receptor [7]): 35 nM
- Ki (D(1A) dopamine receptor): 18000 nM
- EC50 (D(3) dopamine receptor [8]): 2.8 nM
- Ki (D(3) dopamine receptor [9]): 0.54 nM

- Ki (D(2) dopamine receptor [10]): 130 nM
- EC50 (D(2) dopamine receptor [1]): > 1000 nM
- Ki (D(4) dopamine receptor [11]): 87 nM
- EC50 (D(3) dopamine receptor [12]): > 1000 nM
- Ki (D(2) dopamine receptor [13]): 230 nM
- EC50 (D(4) dopamine receptor [4]): > 1000 nM
- EC50 (D(2) dopamine receptor [14]): > 1000 nM
- Ki (D(2) dopamine receptor [5]): 3100 nM
- Ki (D(1A) dopamine receptor): 21000 nM
- Ki (D(3) dopamine receptor [15]): 16 nM
Compound: CCCN1CCc2nn3ccccc3c2C1

Compound: CCCN[C@H]1CCc2nc(N)sc2C1 [PRAMIPEXOLE]
- Kd (D(2) dopamine receptor [16]): 1.6 nM

Compound: CCCN1CCC[C@@H](c2cccc(O)c2)C1 [PRECLAMOL]
- EC50 (D(4) dopamine receptor [4]): 60 nM
- Ki (D(4) dopamine receptor [17]): 16 nM
- Ki (D(2) dopamine receptor [5]): 52 nM

Source: ChEMBL document CHEMBL1134894, “Fused azaindole derivatives: molecular design, synthesis and in vitro pharmacology leading to the preferential dopamine D3 receptor agonist FAUC 725” (Bioorg Med Chem Lett, 2002)
